From patent US5117830A, “Method of determining viability of tissue” (priority 1990, dated 1992)
Where two headings read alike, the source gives them in different places.

Key:
A1 adenosine receptors = target: T1, A1 adenosine receptors (Cavia porcellus, UniProt P47745); assay: Antagonism of adenosine agonists in reducing force of contraction of guinea pig atrium (A1); conditions: for competitive antagonism at adenosine receptors in the atria / basal force of contraction in the atria: guinea pig atria
T1 construct: The left atria from male guinea pigs were isolated; from tissue; host or cells: guinea pig left atrium (whole tissue in organ bath)
T1 sequence (P47745 1-326): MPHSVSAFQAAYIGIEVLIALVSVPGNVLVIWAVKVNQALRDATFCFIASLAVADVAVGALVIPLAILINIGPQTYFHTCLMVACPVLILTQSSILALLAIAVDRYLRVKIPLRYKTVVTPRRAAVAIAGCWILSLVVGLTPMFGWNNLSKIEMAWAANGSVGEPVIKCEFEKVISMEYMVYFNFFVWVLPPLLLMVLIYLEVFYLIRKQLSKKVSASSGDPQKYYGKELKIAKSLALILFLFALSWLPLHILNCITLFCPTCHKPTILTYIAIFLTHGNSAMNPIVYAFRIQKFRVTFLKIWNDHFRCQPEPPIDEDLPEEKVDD
Method: The left atria from male guinea pigs were isolated, suspended between two punctate electrodes, and placed in a 20 ml organ bath that contained Krebs-Hensileit solution that was continuously gassed with 95% O2 +5% CO2 and maintained at 31° C. The resting tension was one gram. The atria were stimulated electrically at 1 Hz, 1 msec duration pulses at supramaximal voltage. The force of contraction was recorded isometrically.
(§1) The ability of the compounds to antagonize the effects of agonists was analyzed using modified Schild plots.

[1] = system: rat cortical A1 receptors; assay: Displacement of [^3 H]-CHA from rat cortical A1 receptors; type: binding; conditions: Table 4
Method: Varying concentrations of test compounds were incubated with the appropriate radioligand and membrane source for 1 hr at room temperature.
Assays were terminated by filtration over Whatman GF/B filters that had been pre-soaked with 0.1% polyethyleneimine using a 24 port Brandell cell hawester. The filters were washed three times with 3 ml of ice cold buffer and transferred to plastic scintillation vials to which 4 ml of Beckman Ready-Protein scintillation cocktail was added. The tubes were shaken and counted in a Beckman 3801 scintillation counter that converted cpm to dpm.
Data were analyzed by utilizing the Ligand commercial computer program (Munson and Rodbard, 1980).
Male Sprague Dawley rats were killed by decapitation and the brains removed. The cerebral cortices were homogenized in 50 mm Tris; 2mm MgCl2 (pH 7.4), and centrifuged at 40,000×g for 10 minutes. […] The homogenate was centrifuged, washed once, resuspended to a protein concentration of 5-10 mg/ml and frozen at -70° C. until use.

[2] = system: rat heart rate and blood pressure; assay: In vivo rat heart rate and blood pressure
Method: Rats were anesthetized with urethan and blood pressure was monitored via a carotid cannula. Drug injections were made intravenously through a jugular cannula. Blood pressure, EGC, and heart rate were recorded on a Grass polygraph.

A2 adenosine receptors = assay: Antagonism of adenosine agonists in decreasing contractile tone of guinea pig taenia caecum (A2); conditions: for antagonism of the effects of adenosine agonists in relaxing the taenia caecum: guinea pig taenia caecum; for selectivity for A1 adenosine receptors: lack of competitive antagonism in taenia caecum
Method: Taenia from the guinea pig caecum were cut into lengths of 1.5-2 cm. The tissues were suspended in a 20 ml organ bath containing de Jalon's solution that was gassed with 95% O2 +5% CO2 and maintained at 31° C. The resting tension was 1.5 g. The contractile response was measured isotonically.
as §1

adenosine receptors = conditions: cited from earlier work
patients = conditions: in vivo; cited from earlier work
[3] = cited from earlier work
coronary artery = conditions: cited from earlier work
A2 receptors [4] = conditions: vs N^6 -substituted analogs; cited from earlier work
A1 receptors [5] = target: T2, A1 receptors (Rattus norvegicus, UniProt P25099); assay: Inhibition of N^6 -R-[^3 H]-phenylisopropyladenosine binding in rat brain membranes; set-up: rat brain membranes; from tissue; host or cells: rat brain (membranes); conditions: for Ki: (D) Rat Brain Membranes, read-out: Ki vs [^3 H] PIA (Binding), A1 Effects
T2 sequence (P25099 1-326): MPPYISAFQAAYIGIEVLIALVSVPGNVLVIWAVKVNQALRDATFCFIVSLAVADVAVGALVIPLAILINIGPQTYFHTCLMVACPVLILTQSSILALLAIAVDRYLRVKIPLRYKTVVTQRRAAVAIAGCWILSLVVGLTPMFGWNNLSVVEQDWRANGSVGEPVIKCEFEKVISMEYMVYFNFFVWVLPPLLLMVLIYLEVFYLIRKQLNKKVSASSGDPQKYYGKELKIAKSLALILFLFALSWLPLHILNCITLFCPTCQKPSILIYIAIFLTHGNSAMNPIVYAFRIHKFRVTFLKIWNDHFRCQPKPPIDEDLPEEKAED
Method: (§2) For activity at A1 receptors, compounds were tested as inhibitors of the binding of N^6 -R-[^3 H]-Phenylisopropyladenosine in rat brain membranes and for their ability to prevent R-PIA-induced inhibition of adenylate cyclase in rat fat cell membranes.

A2 receptors [6] = target: T3, A2 receptors (Homo sapiens, UniProt P29274); assay: Antagonism of NECA-stimulated adenylate cyclase in human platelet membranes; type: biochemical
T3 construct: membranes of human platelets; from tissue; host or cells: human platelets (membranes)
T3 sequence (P29274 whole entry): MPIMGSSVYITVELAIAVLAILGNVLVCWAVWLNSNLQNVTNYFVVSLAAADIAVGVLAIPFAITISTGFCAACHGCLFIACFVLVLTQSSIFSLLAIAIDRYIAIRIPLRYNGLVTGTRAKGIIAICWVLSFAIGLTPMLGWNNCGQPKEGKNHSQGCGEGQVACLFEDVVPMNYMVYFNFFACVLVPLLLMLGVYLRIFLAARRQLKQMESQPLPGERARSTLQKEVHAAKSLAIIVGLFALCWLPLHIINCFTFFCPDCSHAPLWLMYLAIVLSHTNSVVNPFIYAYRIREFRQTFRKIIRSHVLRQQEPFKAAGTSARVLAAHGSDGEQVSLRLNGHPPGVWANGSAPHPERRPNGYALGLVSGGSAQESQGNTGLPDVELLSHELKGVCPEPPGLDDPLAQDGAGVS

A1 receptors [7] = target: T2, A1 receptors; assay: Prevention of R-PIA-induced inhibition of adenylate cyclase in rat fat cell membranes; type: biochemical
Method: as §2

A2 receptors [8] = target: T4, A2 receptors (Rattus norvegicus, UniProt P30543); assay: Antagonism of NECA-stimulated adenylate cyclase in rat PC12 membranes; type: biochemical; conditions: read-out: KB vs NECA Stimulation (Adenylate Cyclase), A2 Effects; (B) Rat PC12 Membranes
T4 construct: NECA-stimulated adenylate cyclase
T4 sequence (P30543 whole entry): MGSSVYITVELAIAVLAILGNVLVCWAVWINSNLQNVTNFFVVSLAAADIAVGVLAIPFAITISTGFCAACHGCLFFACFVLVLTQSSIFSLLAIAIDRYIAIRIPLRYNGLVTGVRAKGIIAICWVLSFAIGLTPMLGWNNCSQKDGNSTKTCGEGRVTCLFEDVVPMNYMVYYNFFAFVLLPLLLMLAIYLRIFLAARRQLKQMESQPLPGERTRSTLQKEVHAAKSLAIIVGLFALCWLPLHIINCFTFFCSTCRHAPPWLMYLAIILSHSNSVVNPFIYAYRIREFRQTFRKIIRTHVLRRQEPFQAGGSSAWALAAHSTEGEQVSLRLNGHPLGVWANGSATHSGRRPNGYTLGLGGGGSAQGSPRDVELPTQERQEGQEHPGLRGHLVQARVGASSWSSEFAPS
Method: as §2, with “membranes. For activity at A2 receptors, compounds were tested as antagonists of NECA-stimulated adenylate cyclase in membranes of human platelets and rat PC12 cells.” for “membranes.”

[9] = anesthetized rats, high doses of adenosine
[10] = prior administration, NECA as agonist

Cn1cnc2c(N[C@H]3C[C@H]4CC[C@@H]3C4)ncnc21 (relative stereo) [compound 0861, N^6-(endo-2-norbornyl)-9-MA]
selectivity towards the A1 adenosine receptor / rank of potency (A1 adenosine receptors; Table 2 compounds): the most potent antagonist
competitive antagonism at adenosine receptors in the atria (A1 adenosine receptors): competitive antagonists
selectivity for A1 receptors over A2 receptors [1]: 170 fold
A1 /A2 ([1]; ratio of Ki values): 5.89 × 10^-3
effects of subsequently administered adenosine on all parameters (blood pressure, heart rate, P-R interval) ([2]; anesthetized rats, antagonist given before adenosine): attenuated the effects of subsequently administered adenosine on all parameters measured
adenosine-induced heart block [2, 9]: substantially reduced
NECA-induced decrease in blood pressure [2, 10]: minimally affecting the NECA-induced decrease in blood pressure
effects of NECA on the heart [2, 10]: attenuated the effects of NECA on the heart
selectivity in vivo ([2]; rat): cardioselective adenosine receptor antagonist in vivo
antagonism of the effects of adenosine agonists in relaxing the taenia caecum (A2 adenosine receptors): did not competitively antagonize
selectivity for A1 adenosine receptors (A2 adenosine receptors): selective for A1 adenosine receptors

Cn1c(=O)c2[nH]c(-c3ccccc3)nc2n(C)c1=O [8-phenyltheophylline (8-PT), 8-phenyltheophylline, reference compound]
antagonism of the effects of adenosine agonists in relaxing the taenia caecum (A2 adenosine receptors): did antagonize the effects of agonists at low concentrations
sensitization of the tissue (A2 adenosine receptors; high concentrations, larger response to agonist): Sensitization is also observed when using high concentrations
receptor selectivity (adenosine receptors): non-selective adenosine receptor antagonist

Nc1ncnc2c1ncn2[C@@H]1O[C@H](CO)[C@@H](O)[C@H]1O [Adenosine, reference compound]
side effects (patients): a number of cardiovascular, respiratory, central nervous system, and gastrointestinal side effects
heart block [2, 9]: At high doses, adenosine causes heart block
P-R interval of the ECG ([2]; anesthetized rats, intravenous): concomitant increase in the P-R interval
blood pressure ([2]; anesthetized rats, intravenous): dose dependent decrease in blood pressure
heart rate ([2]; anesthetized rats, intravenous): dose dependent decrease in blood pressure and heart rate
half-life ([3]; in vivo): less than two
heart rate, ventilation and airway resistance (coronary artery): increases heart rate, and stimulates ventilation but does not alter airway resistance
vasodilation / coronary blood flow (coronary artery): potent vasodilator, except in the kidney

OCCN(CCO)c1nc(N2CCCCC2)c2nc(N(CCO)CCO)nc(N3CCCCC3)c2n1 [Dipyridamole, dipyridamole]
side effects (patients): rare but potentially serious side effects which include myocardial ischemia, cardiac arrhythmia, and sudden death
half-life compared with adenosine ([3]; dipyridamole): significantly longer half-life
vasodilation / coronary blood flow (coronary artery): increase in coronary blood flow

CCNC(=O)[C@H]1O[C@@H](n2cnc3c(N)ncnc32)[C@H](O)[C@@H]1O [NECA, 5'-N-ethylcarboxamido-adenosine]
potency at A2 receptors (A2 receptors [4]): more potent than N^6 -substituted analogs

Cn1cnc2c(NC3CCCCC3)ncnc21 [N^6 -Cyclohexyl-9-MA]
Ki (A1 receptors [5]): 0.94 µM

CCC(Cc1cccs1)Nc1ncnc2c1ncn2C (stereo not drawn) [N^6-1-(2-thienyl)-2-butyl-9-MA]
basal force of contraction in the atria (A1 adenosine receptors): increases in basal force of contraction
competitive antagonism at adenosine receptors in the atria (A1 adenosine receptors): competitive antagonists

CCC(CC)Nc1ncnc2c1ncn2C [N^6-3-Pentyl-9-MA]
basal force of contraction in the atria (A1 adenosine receptors): increases in basal force of contraction
competitive antagonism at adenosine receptors in the atria (A1 adenosine receptors): competitive antagonists
antagonism of the effects of adenosine agonists in relaxing the taenia caecum (A2 adenosine receptors): did not competitively antagonize
selectivity for A1 adenosine receptors (A2 adenosine receptors): selective for A1 adenosine receptors

Cn1c(=O)c2c(ncn2C)n(C)c1=O [caffeine]
antagonism at adenosine receptors (adenosine receptors): best known antagonists at adenosine receptors

Cn1cnc2c(NC3CCCC3)ncnc21 [compound 0840, N^6-cyclopentyl-9-MA]
competitive antagonism at adenosine receptors in the atria (A1 adenosine receptors): competitive antagonists
potency relative to 9-methyladenine at A2 receptors (A2 receptors [6]; human platelet assay): fivefold more potent
Ki (A1 receptors [5]): 0.54 µM
potency relative to 9-methyladenine at A1 receptors (A1 receptors [5]; A1 receptors): at least 100 fold
antagonism of the effects of adenosine agonists in relaxing the taenia caecum (A2 adenosine receptors): did not competitively antagonize
selectivity for A1 adenosine receptors (A2 adenosine receptors): selective for A1 adenosine receptors

C[C@@H](Cc1ccccc1)Nc1ncnc2c1ncn2C [compound 0986, N^6 -S-1-phenyl-2-propyl-9-MA]
Kb (A1 receptors [7]): 23 µM

N^6 -Methylcylopentyl-9-MA
Kb (A1 receptors [7]; (C) Rat Fat Cell Membranes, read-out: KB vs PIA INHIBITION (Adenylate Cyclase), A1 Effects): 9 µM
Kb (A2 receptors [8]): 56 µM
Kb (A2 receptors [6]; read-out: KB vs NECA Stimulation (Adenylate Cyclase), A2 Effects, (A) Human Platelet Membranes): 45 µM
Ki (A1 receptors [5]): 2.5 µM
